Reference: PMC8294059, “Identification and Immune Assessment of T Cell Epitopes in Five Plasmodium falciparum Blood Stage Antigens to Facilitate Vaccine Candidate Selection and Optimization” (Frontiers in Immunology, 2021)
Where a SMILES comes first, the peptide text is derived from it.

Legend:
HLA-B*0702 = HLA-B*0702 (Homo sapiens, UniProt P01889); assay: In vitro class I HLA binding assay (fluorescence polarization competition); conditions: allele B*0702, fluorescence polarization competition; for IC50: read-out: IC50 (nM), in vitro HLA binding affinity
Procedure: A cell-free class I HLA binding assay that allows for in vitro quantification of peptide-HLA binding affinity in a competition format was used. In this assay, a fluorescently labeled, high binding, control peptide is loaded onto 384-well ½-area plates along with unlabeled experimental peptides. To remove endogenous peptides and render the HLA A and B molecules receptive to binding, HLA is heated at 53°C for 15 minutes and immediately added to the assay. The mixture is then allowed to stand for three days. […] Binding of experimental peptides is expressed as the percent inhibition of the labeled control peptide (experimental fluorescence / control fluorescence, multiplied by 100). The percent inhibition values for each experimental peptide (across a range of molar concentrations) are used to calculate the concentration which inhibits 50% of the labeled control peptide’s specific binding. This value is referred to as the peptide’s IC50.

HLA-DRB1*1501 = molecular target: T1, HLA-DRB1*1501 (Homo sapiens, UniProt P01903+P01911); assay: biochemical; format: binding; conditions: binding inhibition assay; NB = non-binder (no dose-dependent inhibition); read-out: DRB1*1501 IC50
T1 construct: purchased
Summary of the method: (§1)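 IC50 values reflect how well each test peptide displaces a labeled high-affinity reference peptide from commercially available HLA-DRB1 allele monomers. Final test concentrations spanned 100,000 nM to 100 nM, with detection by europium-based time-resolved fluorescence after anti-HLA-DR capture.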

HLA-DRB1*0401 = molecular target: T2, HLA-DRB1*0401 (Homo sapiens, UniProt P01903+P01911, A100K/A169T/F76Y/I96L/K127E/L162R/M171V/N62H/P40V/Q125Y/R42H/S133A/S149N/S66Y/V115G/V209L/W38E); assay: biochemical; format: binding; conditions: binding inhibition assay; NB = non-binder (no dose-dependent inhibition); read-out: DRB1*0401 IC50
T2 construct: purchased
Summary of the method: as §1

HLA-DRB1*1301 = HLA-DRB1*1301 (Homo sapiens, UniProt P01903+P01911, A100E/A169T/K41T/L162R/M171V/P40S/Q125H/Q178H/Q39Y/Q99D/R42S/S66N/T262R/W38E/Y61H); assay: biochemical; format: binding; conditions: binding inhibition assay; NB = non-binder (no dose-dependent inhibition); read-out: DRB1*1301 IC50
Summary of the method: as §1

HLA-DRB1*1101 = HLA-DRB1*1101 (Homo sapiens, UniProt P01903+P01911, A100R/A169T/A87E/I96F/K41T/L162R/M171V/P40S/Q125H/Q178H/Q39Y/Q99D/R42S/S66Y/T262R/V115G/W38E); assay: biochemical; format: binding; conditions: binding inhibition assay; NB = non-binder (no dose-dependent inhibition); read-out: DRB1*1101 IC50
Summary of the method: as §1

HLA-DRB1*0701 = HLA-DRB1*0701 (Homo sapiens, UniProt P01903+P01911, A100R/A102G/A103Q/D57E/D86V/E43K/F76Y/K127E/L162R/M171V/P40G/Q125H/Q99D/R33Q/R42Y/R54Q/S133A/S66F/T210M/V115G/Y107V/Y59L/Y89S); assay: biochemical; format: binding; conditions: binding inhibition assay; NB = non-binder (no dose-dependent inhibition); read-out: DRB1*0701 IC50
Summary of the method: as §1

HLA-DRB1*0101 = molecular target: T3, HLA-DRB1*0101 (Homo sapiens, UniProt P01903+P01911, A100R/D57E/F55L/F60I/F76Y/I96L/L162R/M171V/P40L/Q125E/R42F/V115G/Y59C); assay: biochemical; format: binding; conditions: binding inhibition assay; NB = non-binder (no dose-dependent inhibition); read-out: DRB1*0101 IC50
T3 construct: purchased
Summary of the method: as §1

HLA-DRB1*0801 = HLA-DRB1*0801 (Homo sapiens, UniProt P01903+P01911, A100R/A103L/A169T/D86S/F76Y/H45Y/I96F/K41T/L162R/M171V/P40S/Q125H/Q178H/Q39Y/Q99D/R218S/R42G/S66Y/V115G/W38E); assay: biochemical; format: binding; conditions: binding inhibition assay; NB = non-binder (no dose-dependent inhibition); read-out: DRB1*0801 IC50
Summary of the method: as §1

CC(C)C[C@H](NC(=O)[C@@H](NC(=O)[C@@H]1CCCN1C(=O)[C@@H](NC(=O)[C@@H](NC(=O)[C@H](Cc1c[nH]cn1)NC(=O)[C@H](CO)NC(=O)[C@H](C)NC(=O)[C@@H](N)CCCNC(=N)N)[C@@H](C)O)[C@@H](C)O)C(C)C)C(=O)O [AMA1_608] (H-RASHTTPVL-OH)
IC50 (HLA-B*0702): 258 nM

FNRIEYHTKI [RH5_421]
IC50 (nM), in vitro HLA binding affinity (HLA-B*0702): Non-binder

C[C@H](NC(=O)[C@@H](NC(=O)[C@@H](NC(=O)[C@H](CC(N)=O)NC(=O)CNC(=O)[C@H](Cc1ccc(O)cc1)NC(=O)[C@H](CCCCN)NC(=O)[C@H](CCC(=O)O)NC(=O)[C@@H]1CCCN1C(=O)[C@@H](N)CCCCN)[C@@H](C)O)[C@@H](C)O)C(=O)O [CYRPA_316] (H-KPEKYGNTTA-OH)
IC50 (HLA-B*0702): 836000 nM

MDMKNYGTNL [RH5_330]
IC50 (nM), in vitro HLA binding affinity (HLA-B*0702): Non-binder

IPHYTFLDYY [RH5_176]
IC50 (nM), in vitro HLA binding affinity (HLA-B*0702): Non-binder

CC(C)C[C@H](NC(=O)[C@H](CC(N)=O)NC(=O)[C@H](CCC(=O)O)NC(=O)[C@H](CCCCN)NC(=O)[C@H](CS)NC(=O)[C@@H](NC(=O)[C@H](CS)NC(=O)[C@H](CCC(=O)O)NC(=O)[C@@H]1CCCN1C(=O)[C@@H](N)CCCCN)C(C)C)C(=O)O [RIPR_0836] (H-KPECVCKENL-OH)
IC50 (HLA-B*0702): 206000 nM

CC[C@H](C)[C@H](N)C(=O)N1CCC[C@H]1C(=O)N[C@@H](Cc1ccccc1)C(=O)N[C@@H](Cc1c[nH]cn1)C(=O)N[C@@H](CCCCN)C(=O)N[C@@H](CCCCN)C(=O)N[C@@H](Cc1ccccc1)C(=O)N[C@H](C(=O)N[C@@H](CO)C(=O)N[C@@H](Cc1ccccc1)C(=O)O)[C@@H](C)CC [CYRPA_003] (H-IPFHKKFISF-OH)
IC50 (HLA-B*0702): 21900 nM

CC[C@H](C)[C@H](NC(=O)[C@H](CS)NC(=O)[C@H](CCC(=O)O)NC(=O)CNC(=O)[C@H](CCCNC(=N)N)NC(=O)[C@H](CO)NC(=O)[C@H](CO)NC(=O)[C@H](CCCNC(=N)N)NC(=O)[C@H](Cc1ccc(O)cc1)NC(=O)[C@H](Cc1ccc(O)cc1)NC(=O)[C@H](Cc1c[nH]cn1)NC(=O)[C@H](CCC(=O)O)NC(=O)[C@H](CCCCN)NC(C)=O)C(=O)N[C@@H](CC(C)C)C(=O)N[C@@H](CC(N)=O)C(=O)N[C@@H](CC(=O)O)C(N)=O [RIPR_017] (Ac-KEHYYRSSRGECILND-NH2)
IC50 (HLA-DRB1*1501): 58.2 µM | IC50 (HLA-DRB1*0401): > 100 µM | IC50 (HLA-DRB1*1301): > 100 µM | IC50 (HLA-DRB1*1101): 1.38 µM | IC50 (HLA-DRB1*0701): 0.489 µM | IC50 (HLA-DRB1*0101): 0.025 µM | IC50 (HLA-DRB1*0801): 6.44 µM

CC[C@H](C)[C@H](NC(=O)[C@H](CO)NC(=O)[C@@H](NC(=O)[C@@H]1CCCN1C(=O)[C@@H](NC(=O)[C@H](CC(=O)O)NC(C)=O)C(C)C)[C@@H](C)CC)C(=O)N[C@H](C(=O)N[C@@H](CCCNC(=N)N)C(=O)N[C@@H](CC(N)=O)C(=O)N[C@@H](CC(N)=O)C(=O)N[C@@H](CCC(=O)O)C(=O)N[C@@H](CCC(N)=O)C(=O)N[C@H](C(=O)N[C@@H](CO)C(=O)N[C@@H](CCC(N)=O)C(=O)N[C@@H](CCC(=O)O)C(=O)N[C@@H](C)C(N)=O)[C@@H](C)O)[C@@H](C)CC [EBA175_014] (Ac-DVPISIIRNNEQTSQEA-NH2)
IC50 (HLA-DRB1*1501): 3.09 µM | IC50 (HLA-DRB1*0401): 3.81 µM | IC50 (HLA-DRB1*1301): 14.1 µM | IC50 (HLA-DRB1*1101): 16.7 µM | IC50 (HLA-DRB1*0701): 13.3 µM | IC50 (HLA-DRB1*0101): 6.15 µM | IC50 (HLA-DRB1*0801): 18.7 µM

CC[C@H](C)[C@H](NC(=O)[C@@H](NC(=O)[C@H](C)NC(=O)[C@H](CC(C)C)NC(C)=O)[C@@H](C)O)C(=O)N[C@@H](CC(C)C)C(=O)N[C@@H](CCSC)C(=O)N[C@H](C(=O)N[C@@H](Cc1ccc(O)cc1)C(=O)N[C@@H](CC(C)C)C(=O)N[C@@H](Cc1ccc(O)cc1)C(=O)N[C@@H](CCCCN)C(=O)N[C@@H](CCCNC(=N)N)C(=O)N[C@@H](CCCCN)C(=O)NCC(=O)N[C@@H](CC(N)=O)C(=O)N[C@@H](C)C(=O)N[C@@H](CCC(=O)O)C(=O)N[C@@H](CCCCN)C(=O)N[C@@H](Cc1ccc(O)cc1)C(=O)N[C@@H](CC(=O)O)C(=O)N[C@@H](CCCCN)C(N)=O)C(C)C [AMA1_009] (Ac-LATILMVYLYKRKGNAEKYDK-NH2)
IC50 (HLA-DRB1*1501): 2.44 µM | IC50 (HLA-DRB1*0401): 11.1 µM | IC50 (HLA-DRB1*1301): 4.4 µM | IC50 (HLA-DRB1*1101): 0.165 µM | IC50 (HLA-DRB1*0701): 3.4 µM | IC50 (HLA-DRB1*0101): 10 µM | IC50 (HLA-DRB1*0801): 7.99 µM

CC[C@H](C)[C@H](NC(=O)[C@H](Cc1ccc(O)cc1)NC(=O)[C@@H](NC(=O)[C@H](Cc1ccc(O)cc1)NC(=O)[C@H](CO)NC(=O)CNC(=O)[C@H](CCSC)NC(=O)[C@H](CCCCN)NC(=O)[C@H](CCCCN)NC(=O)[C@H](CC(N)=O)NC(=O)[C@H](CC(C)C)NC(=O)[C@H](CC(N)=O)NC(=O)[C@@H](NC(=O)[C@H](CC(C)C)NC(=O)[C@H](CC(C)C)NC(=O)[C@H](CC(C)C)NC(=O)[C@H](CCC(=O)O)NC(=O)[C@@H](N)CO)[C@@H](C)O)[C@@H](C)CC)C(N)=O [RH5_010B] (H-SELLLTNLNKKMGSYIYI-NH2)
IC50 (HLA-DRB1*1501): 9.97 µM | IC50 (HLA-DRB1*0401): 84 µM | IC50 (HLA-DRB1*1301): 9.34 µM | IC50 (HLA-DRB1*1101): 0.204 µM | IC50 (HLA-DRB1*0701): 41.5 µM | IC50 (HLA-DRB1*0101): 0.077 µM | IC50 (HLA-DRB1*0801): 6.46 µM

CC(=O)N[C@H](C(=O)N[C@@H](CO)C(=O)N[C@@H](CS)C(=O)N[C@@H](Cc1ccc(O)cc1)C(=O)N[C@@H](CCCNC(=N)N)C(=O)N[C@H](C(=O)N[C@@H](CO)C(=O)N[C@@H](Cc1ccccc1)C(=O)N[C@@H](CC(N)=O)C(=O)N[C@@H](CC(C)C)C(=O)N[C@@H](CC(N)=O)C(=O)N[C@@H](CCCCN)C(=O)N[C@@H](CC(C)C)C(=O)N[C@@H](CCCCN)C(=O)N[C@@H](Cc1ccc(O)cc1)C(=O)N[C@H](C(=O)N[C@H](C(=O)N[C@@H](CCC(=O)O)C(=O)N[C@@H](CO)C(N)=O)[C@@H](C)O)C(C)C)C(C)C)C(C)C [RIPR_006] (Ac-VSCYRVSFNLNKLKYVTES-NH2)
IC50 (HLA-DRB1*1501): 6.96 µM | IC50 (HLA-DRB1*0401): 8.78 µM | IC50 (HLA-DRB1*1301): 11.5 µM | IC50 (HLA-DRB1*1101): 9.32 µM | IC50 (HLA-DRB1*0701): 0.952 µM | IC50 (HLA-DRB1*0101): 0.446 µM | IC50 (HLA-DRB1*0801): 11.3 µM

CC[C@H](C)[C@H](NC(=O)CNC(=O)[C@H](CCC(N)=O)NC(=O)[C@H](CO)NC(=O)[C@H](CO)NC(=O)[C@H](CO)NC(=O)[C@H](Cc1ccc(O)cc1)NC(=O)[C@@H](NC(=O)[C@H](Cc1ccccc1)NC(=O)[C@H](CC(C)C)NC(=O)[C@@H](NC(=O)[C@H](CCCNC(=N)N)NC(=O)[C@H](CC(N)=O)NC(=O)[C@H](CCC(=O)O)NC(=O)[C@H](CC(=O)O)NC(C)=O)[C@@H](C)O)[C@@H](C)CC)C(=O)N[C@@H](Cc1ccc(O)cc1)C(=O)N[C@@H](CC(N)=O)C(=O)N[C@H](C(=O)N[C@@H](Cc1c[nH]cn1)C(=O)N[C@H](C(N)=O)[C@@H](C)O)[C@@H](C)CC [CYRPA_008] (Ac-DENRTLFIYSSSQGIYNIHT-NH2)
IC50 (HLA-DRB1*1501): 0.05 µM | IC50 (HLA-DRB1*0401): 1.05 µM | IC50 (HLA-DRB1*1301): 6.98 µM | IC50 (HLA-DRB1*1101): 1.13 µM | IC50 (HLA-DRB1*0701): 0.219 µM | IC50 (HLA-DRB1*0101): 0.004 µM | IC50 (HLA-DRB1*0801): 11.5 µM
